This test has as its system monoclonal antibody D32.39.
Setting [1] is: relative fluorescence intensity of the corresponding surface-immobilized peptide (N-acetylated, C-terminal amide link to surface).
Setting [2] is: truncated dynorphin peptides, surface-immobilized, N-acetylated, linked via C-terminal amide, D32.39 10 μg/ml 2 hours, ± SD of min. four replicates, […].

Read-outs that look alike come from different tables or passages of the source.

Description: Non-specific protein binding to the surface was blocked with 1% BSA/PBS/0.05% Tween 20. The array was incubated with the D32.39 antibody at a concentration of 10 μg/ml for 2 hours, followed by reaction with 10 μg/ml of FITC conjugated anti-mounse antibody (Sigma) for 2 hours at 20° C. Following extensive washing with buffer, the array was scanned in a confocal fluorescence microscope with 488 nm excitation from an argon ion laser (Spectra-Physics). […] The replicates were averaged, and the data sorted according to desired sequences.

Take Ac-FLRRQFKVVT-OH: the “Normalized Intensity (%)” value under setting [1] was 98%.
Regarding Ac-QFKVVT-OH [Ac-QFKVVT-OH], under setting [1], the “Normalized Intensity (%)” value is 28%.
As to Ac-RQFKVVT-OH [Ac-RQFKVVT-OH], under setting [1], the “Normalized Intensity (%)” value came to 99%.
For Ac-RRQFKVVT-OH, the “Normalized Intensity (%)” value under setting [1] is listed as 99%.
With FKVV, the “Normalized Intensity (%)” value under setting [2] was 10 ± 2%.
For FKVVT, the “Normalized Intensity (%)” value under setting [2] is 13 ± 4%.
In the case of FLRR, under setting [2], the “Normalized Intensity (%)” value came out at 6 ± 3%.
FLRRQ: under setting [2], the “Normalized Intensity (%)” value was 8 ± 3%.
For the substance FLRRQF, the “Normalized Intensity (%)” value under setting [2] is recorded as 8 ± 3%.
Take FLRRQFK: the “Normalized Intensity (%)” value under setting [2] came out at 10 ± 3%.
Take FLRRQFKV: the “Normalized Intensity (%)” value under setting [2] turned out to be 14 ± 3%.
With FLRRQFKVV, the “Normalized Intensity (%)” value under setting [2] is given as 37 ± 15%.
Take FLRRQFKVVT: the “relative intensity (normalized fluorescence signal)” value (normalized 0 to 100% after background subtraction) is recorded as “about 100%”. Moreover, the “Normalized Intensity (%)” value under setting [2] is 98 ± 1%.
Turning to KVVT, the “Normalized Intensity (%)” value under setting [2] came to 11 ± 2%.
Take LRRQ: the “Normalized Intensity (%)” value under setting [2] stood at 10 ± 4%.
Still for that read-out and setting: the value for LRRQF was 10 ± 4%; that for LRRQFK was 12 ± 3%; that for LRRQFKV was 16 ± 3%.
As to LRRQFKVV, under setting [2], the “Normalized Intensity (%)” value amounted to 44 ± 12%.
For the substance LRRQFKVVT, under setting [2], the “Normalized Intensity (%)” value was determined as 87 ± 13%.
As to QFKV, the “Normalized Intensity (%)” value under setting [2] is reported as 11 ± 2%.
Same read-out and setting: the result for QFKVV reads 17 ± 2%; that for QFKVVT, 28 ± 3%; that for RQFK, 13 ± 5%.
Still for that read-out and setting: the result for RQFKV reads 16 ± 4%; that for RQFKVV, 54 ± 11%.
On to RQFKVVT, for which the “Normalized Intensity (%)” value under setting [2] is reported as 99 ± 1%.
As to RRQF, the “Normalized Intensity (%)” value under setting [2] came to 11 ± 5%.
RRQFK: under setting [2], the “Normalized Intensity (%)” value came out at 12 ± 3%.
Take RRQFKV: under setting [2], the “Normalized Intensity (%)” value amounted to 16 ± 3%.
RRQFKVV: under setting [2], the “Normalized Intensity (%)” value amounted to 58 ± 10%.
Turning to RRQFKVVT, the “Normalized Intensity (%)” value under setting [2] came out at 99 ± 1%.

Values taken from patent US20030099983A1, “Cyclic and substituted immobilized molecular synthesis” (Affymetrix, Inc., priority 1991, published 2003).
